“And” between values parts separate entries of the source, which are not always exact repeats. Identical values can stand only once.

The viability, T/C is the ratio of treated to control. For orientation: IC50 means the concentration that gives 50% inhibition.

This experiment deals with 777334-354-R2-J4-PDC tumor spheroids with HUVEC/MSC, viability. Nature of the experiment: Anticancer human tumor 777334-354-R2-J4-PDC patient-derived pancreatic adenocarcinoma cell line growth inhibition [GQUAD]. The note with it: for viability, T/C: stronger effect = lower value; for IC50: curve of compound. An excerpt:
DNA G-quadruplex Stabilizer Agents in Combinations in Complex Spheroids
A high-throughput screen of multi-cell type tumor spheroids was designed to identify active combinations of DNA G-quadruplex stabilizer agents and targeted small molecules. Complex spheroids include a stromal component modeled by human endothelial cells (HUVEC) and fibroblasts modeled by human mesenchymal stem cells (MSCs). The concentration ranges selected for each drug and investigational agent were based upon clinically achievable concentrations if the clinical Cmax of the agent was known.
Compounds. The drugs and investigational agents: pidnarulex (CX-5461; NSC782164), APTO-253 (NSC789042), BRACO-19 (NSC847499), peposertib (NSC802822), ceralasertib (NSC780249), elimusertib (NSC800525), camonsertib (NSC841442), AZD-1390 (NSC803789), olaparib (NSC753686), talazoparib (NSC767125), ART-558 (NSC835418), sotorasib (NSC818433), MRTX-1133 (NSC836407), SN-38 (NSC673596), topotecan (NSC609699), etoposide (NSC141540), doxorubicin (NSC123127), gemcitabine (NSC613327), 5-fluorouracil (NSC19893), paclitaxel (NSC125973), vemurafenib (NSC761431), panobinostat (NSC761190), R-306465 (JNJ-16241199; NSC773264), adavosertib (NSC754352), TP-3654 (NSC805149), carboplatin (NSC241240), KSQ-4279 (NSC840948), and staurosporine (NSC755774) were obtained from the National Cancer Institute (NCI) Developmental Therapeutics Program Chemical Repository (34). The FDA-approved anticancer drug set is available from the NCI Developmental Therapeutics Program. […] The stock solutions were prepared in dimethyl sulfoxide (DMSO, Sigma-Aldrich, St. Louis, MO, cat. D2650) at 800-fold the tested concentration and stored at -70 degrees C prior to their use. All drugs and investigational agents were tested over a range starting from a high concentration at or near the clinical Cmax and decreasing in half-log increments. If the clinical Cmax for an agent had not been determined, the highest concentration tested was 10 microM.
2.3 Cell Culture. All cells were maintained in an incubator at 37 degrees C and 5% CO2 with 95% humidity. The PDC lines were cultured according to standard operating procedures established by the NCI PDMR. All PDCs were thawed and cultured in Matrigel-coated flasks prepared with a working solution of 1X Ham's F-12 nutrient mix, without supplementation (Invitrogen, cat. 11765054), 100 U/mL penicillin-streptomycin (Invitrogen, cat. 15140122), and 2.5% Matrigel (Corning Inc., cat. 354248) for the first three passages. The 857933-349-R-J2-PDC line was cultured in 6C/Colon 1B media, which includes advanced DMEM/F-12 (Thermo Fisher Scientific, cat. 12634028), 10 mM HEPES (Thermo Fisher Scientific, cat. 15630080), 1X GlutaMAX supplement (Thermo Fisher Scientific, cat. 35050061), 0.1 mg/mL primocin (InvivoGen, cat. ant-pm-2), 10% defined fetal bovine serum, heat inactivated (HyClone Laboratories Inc., cat. SH30070.03HI), 50% L-WRN conditioned media (ATCC, cat. CRL-3276), 1.25 mM N-Acetyl-L-cysteine (Sigma-Aldrich, cat. A9165), 10 mM nicotinamide (Sigma-Aldrich, cat. N0636), 1X B-27 supplement (Thermo Fisher Scientific, cat. 17504044), 1X N-2 supplement (Thermo Fisher Scientific, cat. 17502048), 10 microM Y-27632 dihydrochloride (Tocris Bioscience, cat. 1254), and 50 ng/mL human EGF recombinant protein (Thermo Fisher Scientific, cat. PHG0311). The 485176-168-R4-J1-PDC line was cultured in Panc media, which includes all 6C/Colon 1B media components plus 100 ng/mL human FGF-10 (Thermo Fisher Scientific, cat. 100-26), 500 nM SB-431542 (Selleckchem, cat. S1067), and gastrin (Tocris, cat. 3006).
[…]
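Further: spheroids exposed to compounds for 7 days before readout.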

In the case of `C#Cc1c(F)ccc2cc(O)cc(-c3ncc4c(N5CC6CCC(C5)N6)nc(OCC56CCCN5CC(F)C6)nc4c3F)c12` (configuration not stated), the IC50 was less than 31.6 nM. For the same molecule, the viability, T/C (compound 0.0316 µM) was 45.7% and 46.4% and 48.8%. The viability, T/C (compound 0.1 µM) was 38.8% and 41.4% and 41.3%. In addition, the viability, T/C (compound 0.316 µM) is 35.2% and 32.8% and 38.1%. In addition, the viability, T/C (compound 1 µM) is 30.4% and 28.5% and 34%. Moreover, the viability, T/C (compound 3.16 µM) was 26.4% and 36.1% and 29.3%. Also, for the setting “compound 10 µM”, the viability, T/C is 20.9% and 19.6% and 22.6%.
As to `C=CCn1c(=O)c2cnc(Nc3ccc(N4CCN(C)CC4)cc3)nc2n1-c1cccc(C(C)(C)O)n1`, the IC50 was 821 nM and 869 nM and 787 nM. Further, the viability, T/C (compound 0.0316 µM) is 93.8% and 101% and 99.7%. Besides, the viability, T/C (compound 0.1 µM) was 85.8% and 102% and 88%. Moreover, the viability, T/C (compound 0.316 µM) was 81.1% and 84.7% and 74.9%. In addition, the viability, T/C (compound 1 µM) is 43.1% and 45.4% and 41.5%. Also, where the note is “compound 3.16 µM”, the viability, T/C was 35.6% and 37.4% and 39%. The viability, T/C (compound 10 µM) is 30.4% and 38.4% and 35.2%.
Turning to `CC(C)(O)C1CCC(Nc2ccc3ncc(-c4cccc(C(F)(F)F)c4)n3n2)CC1` (configuration not stated), the concentration for half-maximal inhibition (IC50) was 1640 nM and 1290 nM and 876 nM. Besides, the viability, T/C (compound 0.0316 µM) is 84.4% and 103% and 93.7%. Also, the viability, T/C (compound 0.1 µM) is 80.4% and 88.1% and 93.2%. Further, the viability, T/C (compound 0.316 µM) is 82.7% and 83.2% and 94.2%. Besides, the viability, T/C (compound 1 µM) was 62.6% and 55.1% and 44.4%. Further, where the note is “compound 3.16 µM”, the viability, T/C was 32.1% and 31.5% and 31.2%. For the same molecule, the viability, T/C (compound 10 µM) was 34.5% and 39.3% and 36.5%.
As to `CCCS(=O)(=O)Nc1ccc(F)c(C(=O)c2c[nH]c3ncc(-c4ccc(Cl)cc4)cc23)c1F`, the IC50 was 7890 nM and 7980 nM and 7600 nM. For the same molecule, for the setting “compound 0.0316 µM”, the viability, T/C is 107% and 111% and 99.5%. Also, where the note is “compound 0.1 µM”, the viability, T/C was 109% and 105% and 92.8%. The viability, T/C (compound 0.316 µM) is 114% and 127% and 108%. Moreover, the viability, T/C (compound 1 µM) was 110% and 120% and 102%. Moreover, the viability, T/C (compound 3.16 µM) was 98.7% and 115% and 111%. Where the note is “compound 10 µM”, the viability, T/C is 37.2% and 34.2% and 33.4%.
For `COc1ncnc(C2CC2)c1-c1ncc2cnn(Cc3ccc(-c4nc(C(F)(F)F)cn4C(C)C)cc3)c2n1`, the IC50 was more than 10000 nM. Also, the viability, T/C (compound 0.0316 µM) was 102% and 98.3% (2×). Besides, the viability, T/C (compound 0.1 µM) was 96.7% and 90.9% and 106%. Where the note is “compound 0.316 µM”, the viability, T/C is 103% and 98.9% and 98.6%. The viability, T/C (compound 1 µM) was 91.9% and 99.5% and 98.8%. Besides, the viability, T/C (compound 3.16 µM) is 102% and 100% and 99.3%. Moreover, the viability, T/C (compound 10 µM) is 109% and 111% and 98.8%.
With `O=C(NO)c1cnc(N2CCN(S(=O)(=O)c3ccc4ccccc4c3)CC2)nc1`, the half-inhibitory concentration (IC50) is 1200 nM and 1070 nM and 793 nM. For the same molecule, the viability, T/C (compound 0.0316 µM) is 80.7% and 107% and 88.9%. In addition, where the note is “compound 0.1 µM”, the viability, T/C is 89.8% and 86% and 83.7%. For the setting “compound 0.316 µM”, the viability, T/C was 77.1% (2×) and 79.3%. Besides, the viability, T/C (compound 1 µM) is 58% and 59.4% and 44%. Also, the viability, T/C (compound 3.16 µM) was 11.9% and 9.01% and 3.01%. Also, the viability, T/C (compound 10 µM) was 0.93% and 0.25% and 0.19%.

The values are drawn from PubChem BioAssay AID2060499 (Molecular Pharmacology Branch, DTP, NCI, 2025).
